Results taken from patent US20160166577A1, “TREATMENT OF PULMONARY FIBROSIS USING AN INHIBITOR OF CBP/CATENIN” (PRISM Pharma Co., Ltd., priority 2012, published 2016).

Columns and labels:
[1] = test system: bleomycin-induced pulmonary fibrosis; experiment: Bleomycin (BLM)-induced pulmonary fibrosis in mice; format: in vivo, C57BL/6 mice; settings: for antifibrotic effect in six-week course of BLM-induced fibrosis: Example 3, 5 mg/kg/day over weeks 4-6, FIG. 4
Protocol: C57BL/6 mice received subcutaneous implants of an ALZET mini-osmotic pump (Durect Corp., California) that released BLM continuously (Example 1, […]; Example 2, 120 U/kg/mouse/day) for seven days (Day 1-Day 7), to induce lung fibrosis (Lab Invest. 50:487-488, 1984; Am. J. Resp. Cell Mol. Biol. 45:489-497, 2011). Bleomycin induces epithelial injury, causing increased pulmonary inflammation from Days 1-21, peaking at about Day 10 before subsiding. Fibrosis begins at about Day 8 and gradually increases until Day 28.
BLM mice treated with test compound received a second subcutaneous ALZET mini-osmotic pump (Durect Corp., California) that released Compound A continuously. Compound A, 4-(((6S,9S,9aS)-1-(benzylcarbamoyl)-2,9-dimethyl-4,7-dioxo-8-(quinolin-8-ylmethyl)octahydro-1H-pyrazino[2,1-c][1,2,4]triazin-6-yl)methyl)phenyl dihydrogen phosphate.
Ashcroft score (J. Clin. Pathol. 41:467-470, 1988) was calculated from tissue sections of right lung stained by H&E. Left lung homogenates were analyzed for soluble collagen content using SIRCOL Collagen Assay kit (Biocolor Ltd., Carrickfergus, UK).
In Example 1, Compound A was administered 5 mg/kg/day over days 15-28.
In Example 2, Compound A was administered 1 mg/kg/day over Days 1-28 (“whole”), Days 1-14 (“early”) or Days 15-28 (“late”). […] Bleo, bleomycin treatment alone; Bleo+Cmpd A whole, bleomycin plus Compound A administered throughout 4 week period; Bleo+early 2w, bleomycin plus Compound A administered over weeks 1-2; Bleo+late 2w, bleomycin plus Compound A administered over weeks 3-4.
In Example 3, a six-week rather than four-week course of BLM-induced fibrosis was studied. In this example, either Compound A (5 mg/kg/day) or ICG-001 (5 mg/kg/day), another β-catenin inhibitor, was administered to BLM-treated mice over weeks 4-6.

[2] = test system: lung epithelial cell line LA-4; experiment: TGF-β-induced epithelial-to-mesenchymal transition (EMT) in LA-4 cells; format: cell-based, murine
Protocol: In Example 4, the murine lung epithelial cell line, LA-4, available from the American Type Culture Collection (ATCC; Manassas, Va.), was treated with TGF-β (5 ng/ml) to induce epithelial-to-mesenchymal transition (EMT), a marker for fibrosis (J Clin Invest. 119:1420-1428, 2009). TGF-β treated cells were treated with no or with increasing concentrations (0.01 μM, 0.05 μM, 0.1 μM, or 0.5 μM) of Compound C. Compound C, (6S,9S,9aS)—N-benzyl-6-(4-hydroxybenzyl)-2,9-dimethyl-4,7-dioxo-8-(quinolin-8-ylmethyl)octahydro-1H-pyrazino[2,1-c][1,2,4]triazine-1-carboxamide.

[3] = test system: bleomycin-induced lung fibrosis; settings: cited from earlier work
[4] = target: β-catenin/CBP interaction (Homo sapiens, UniProt Q92793); settings: cited from earlier work
β-catenin/CBP interaction, sequence (Q92793 whole entry): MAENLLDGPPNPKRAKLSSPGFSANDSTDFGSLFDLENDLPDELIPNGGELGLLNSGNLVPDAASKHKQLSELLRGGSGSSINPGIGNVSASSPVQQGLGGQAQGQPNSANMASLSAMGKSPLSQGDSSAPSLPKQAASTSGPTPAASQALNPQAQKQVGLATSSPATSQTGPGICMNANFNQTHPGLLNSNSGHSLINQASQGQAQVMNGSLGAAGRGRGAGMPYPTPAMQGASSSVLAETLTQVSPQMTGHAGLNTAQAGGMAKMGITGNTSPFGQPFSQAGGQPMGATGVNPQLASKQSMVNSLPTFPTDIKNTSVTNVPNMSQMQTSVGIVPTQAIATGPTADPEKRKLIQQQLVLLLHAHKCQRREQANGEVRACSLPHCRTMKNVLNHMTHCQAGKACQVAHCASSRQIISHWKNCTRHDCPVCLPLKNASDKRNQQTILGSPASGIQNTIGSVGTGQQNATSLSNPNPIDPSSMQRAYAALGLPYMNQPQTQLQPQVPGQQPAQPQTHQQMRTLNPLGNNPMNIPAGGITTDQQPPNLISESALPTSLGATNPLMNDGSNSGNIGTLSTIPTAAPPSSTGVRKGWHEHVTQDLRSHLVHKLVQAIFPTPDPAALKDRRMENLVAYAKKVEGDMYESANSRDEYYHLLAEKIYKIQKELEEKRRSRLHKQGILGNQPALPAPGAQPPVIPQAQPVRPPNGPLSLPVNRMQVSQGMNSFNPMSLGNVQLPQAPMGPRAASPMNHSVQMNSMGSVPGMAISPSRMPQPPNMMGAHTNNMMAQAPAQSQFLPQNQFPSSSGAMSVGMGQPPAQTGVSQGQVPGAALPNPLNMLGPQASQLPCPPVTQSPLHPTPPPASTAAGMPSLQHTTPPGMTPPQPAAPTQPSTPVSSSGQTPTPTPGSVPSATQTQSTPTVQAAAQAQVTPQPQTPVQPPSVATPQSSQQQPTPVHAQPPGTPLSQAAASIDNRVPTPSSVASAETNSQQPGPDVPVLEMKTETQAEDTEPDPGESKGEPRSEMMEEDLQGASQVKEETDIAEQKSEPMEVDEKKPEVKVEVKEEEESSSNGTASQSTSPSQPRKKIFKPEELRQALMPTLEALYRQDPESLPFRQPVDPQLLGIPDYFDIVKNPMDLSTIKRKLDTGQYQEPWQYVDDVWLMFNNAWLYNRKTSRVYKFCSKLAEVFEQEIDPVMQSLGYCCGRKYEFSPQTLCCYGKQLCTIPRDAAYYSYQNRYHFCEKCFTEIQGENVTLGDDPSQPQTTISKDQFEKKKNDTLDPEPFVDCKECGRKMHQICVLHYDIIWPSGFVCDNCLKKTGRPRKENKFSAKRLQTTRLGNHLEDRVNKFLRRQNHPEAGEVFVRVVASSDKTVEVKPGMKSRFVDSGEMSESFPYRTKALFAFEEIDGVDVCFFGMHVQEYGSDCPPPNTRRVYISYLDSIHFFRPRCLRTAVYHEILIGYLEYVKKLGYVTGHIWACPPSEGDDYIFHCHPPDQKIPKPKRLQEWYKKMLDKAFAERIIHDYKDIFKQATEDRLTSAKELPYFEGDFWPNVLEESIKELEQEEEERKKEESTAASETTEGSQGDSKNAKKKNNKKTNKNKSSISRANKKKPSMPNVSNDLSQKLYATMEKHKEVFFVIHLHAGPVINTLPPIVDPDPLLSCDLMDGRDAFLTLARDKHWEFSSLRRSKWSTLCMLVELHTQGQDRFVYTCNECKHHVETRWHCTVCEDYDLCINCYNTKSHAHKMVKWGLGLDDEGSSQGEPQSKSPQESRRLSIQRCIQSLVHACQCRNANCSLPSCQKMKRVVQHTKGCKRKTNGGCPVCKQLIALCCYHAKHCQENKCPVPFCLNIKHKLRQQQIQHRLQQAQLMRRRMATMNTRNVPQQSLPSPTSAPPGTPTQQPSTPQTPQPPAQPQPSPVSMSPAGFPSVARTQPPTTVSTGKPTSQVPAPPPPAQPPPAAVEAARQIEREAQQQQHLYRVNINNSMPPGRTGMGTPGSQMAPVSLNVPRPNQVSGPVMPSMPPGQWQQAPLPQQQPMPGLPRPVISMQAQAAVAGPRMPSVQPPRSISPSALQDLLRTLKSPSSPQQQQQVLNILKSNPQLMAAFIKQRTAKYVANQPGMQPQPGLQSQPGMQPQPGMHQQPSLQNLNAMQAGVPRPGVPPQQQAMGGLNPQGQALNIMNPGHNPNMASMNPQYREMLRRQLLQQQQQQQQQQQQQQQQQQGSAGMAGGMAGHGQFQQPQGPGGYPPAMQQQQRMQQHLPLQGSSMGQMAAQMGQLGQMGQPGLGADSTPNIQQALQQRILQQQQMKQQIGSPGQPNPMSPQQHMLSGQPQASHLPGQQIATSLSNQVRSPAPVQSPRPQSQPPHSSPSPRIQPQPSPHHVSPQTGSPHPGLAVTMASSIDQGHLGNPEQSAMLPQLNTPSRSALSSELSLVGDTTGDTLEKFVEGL

## C[C@H]1[C@H]2N(C(=O)CN(C)N2C(=O)NCc2ccccc2)[C@@H](Cc2ccc(OP(=O)(O)O)cc2)C(=O)N1Cc1cccc2cccnc12 [Compound A, 4-(((6S,9S,9aS)-1-(benzylcarbamoyl)-2,9-dimethyl-4,7-dioxo-8-(quinolin-8-ylmethyl)octahydro-1H-pyrazino[2,1-c][1,2,4]triazin-6-yl)methyl)phenyl dihydrogen phosphate]
[1]; Example 1, 5 mg/kg, days 14-28, FIG. 2C
  lung fibrosis by histological examination: reduces lung fibrosis
[1]; Example 1, 5 mg/kg/day s.c. osmotic pump, days 15-28 (days 14-28), FIG. 1A, vs bleomycin alone
  lung fibrosis (Ashcroft score): reduces lung fibrosis
[1]; Example 1, 5 mg/kg/day, days 15-28 (days 14-28), FIG. 1B, vs bleomycin alone
  collagen deposition (SIRCOL collagen assay, left lung): reduced
[1]; Example 2, 1 mg/kg/day, Days 1-14 (early), FIG. 3, vs no test compound
  antifibrotic effect, early (inflammatory) phase treatment: not significantly beneficial
[1]; Example 2, 1 mg/kg/day, Days 15-28 (late), FIG. 3
  antifibrotic effect, late (fibrotic) phase treatment: significantly reduced lung fibrosis
[1]; Example 2, 1 mg/kg/day, Days 15-28 vs Days 1-28 (whole), FIG. 3
  late phase treatment compared with treatment throughout the entire period: equal to, or even superior to
[1]
  antifibrotic effect in six-week course of BLM-induced fibrosis: has an antifibrotic effect

## C[C@H]1[C@H]2N(C(=O)CN(C)N2C(=O)NCc2ccccc2)[C@@H](Cc2ccc(O)cc2)C(=O)N1Cc1cccc2cccnc12 [Compound C, (6S,9S,9aS)—N-benzyl-6-(4-hydroxybenzyl)-2,9-dimethyl-4,7-dioxo-8-(quinolin-8-ylmethyl)octahydro-1H-pyrazino[2,1-c][1,2,4]triazine-1-carboxamide]
[2]; TGF-β 5 ng/ml plus compound 0.01 μM, FIG. 6
  α-SMA expression by fluorescent microscopy: decreased alpha smooth muscle actin (α-SMA) expression
[2]; TGF-β 5 ng/ml, increasing concentrations 0.01, 0.05, 0.1, 0.5 μM, FIG. 5
  TGF-β-induced alpha smooth muscle actin (α-SMA) formation / EMT: inhibit TGF-β-induced alpha smooth muscle actin (α-SMA) formation

## O=C1[C@H](Cc2ccc(O)cc2)N2C(=O)CCN(C(=O)NCc3ccccc3)[C@H]2CN1Cc1cccc2ccccc12 [ICG-001]
[3]; 5 mg/kg per day, mice
  bleomycin-induced lung fibrosis: attenuates bleomycin-induced lung fibrosis
  β-catenin signaling: significantly inhibits β-catenin signaling
[3]; concurrent administration
  fibrosis, administration concurrent with bleomycin: prevents fibrosis
[3]; late administration
  established fibrosis, late administration: reverse established fibrosis
  survival, late administration: significantly improve survival
[4]
  selectivity β-catenin/CBP vs β-catenin/p300 interaction: selectively blocks the β-catenin/CBP interaction without interfering with the β-catenin/p300 interaction
[1]
  antifibrotic effect in six-week course of BLM-induced fibrosis: antifibrotic effect, unlike β-catenin inhibitor ICG-001
